Literature values, collected in patent US7208523B2, “Alanine- and glycine-containing therapeutic agent for hepatitis” (Ajinomoto Co., Inc., priority 2000, dated 2007).

Conditions: oral administration of glycine or alanine alone; galactosamine intraabdominal

SMILES	inhibition of hepatopathy caused by galactosamine
C[C@H](N)C(=O)O [alanine]	inhibits
NCC(=O)O [glycine]	inhibits
